Source: patent US8187508B2, “Base agent for electrical insulating oil” (Lion Corporation, priority 2005, dated 2012)

Legend:
[1] = Oxidation stability test (JIS C2101); assay type: physicochemical; details: for Oxidation stability test, 120° C. after 75 hours: acid value after 120° C.; for Oxidation stability test, Initial value: acid value before the test
Description: In order to ensure good stability to oxygen and heat, the base agent for electrical insulating oils of the invention should preferably have a total acid value of not higher than 0.5 mg of KOH/g, more preferably not higher than 0.3 mg of KOH/g, after deterioration in an oxidation stability test (120° C., 75 hours) described in JIS C2101.
(§1) It will be noted that in the following Examples and Comparative Examples, an acid value, moisture content, kinetic viscosity, flash point, oxidation stability, dielectric breakdown voltage, specific permittivity, and a content of fatty acid triglyceride are, respectively, values measured according to the following methods. • (1) Acid value: determined by a method pursuant to a potentiometric method of JIS K1557. • (2) Moisture content: determined by a method pursuant to the Carl Fisher method of JIS K0068. • (3) Kinetic viscosity: determined by a method pursuant to the Canon Fenske viscometer of JIS K2283. • (4) Flash point: determined by a method pursuant to the Cleaveland open-cup method of JIS K2265. • (5) Oxidation stability: determined by a method pursuant to the electrical insulating oil testing method of JIS C2101. • (6) Dielectric breakdown voltage: determined by a method pursuant to the electric insulating oil testing method of JIS C2101. • (7) Specific permittivity: determined by a method pursuant to the electric insulating oil testing method of JIS C2101. • (8) Content of fatty acid triglyceride: about 40 mg of a sample was placed in a 3-ml vial container, to which 0.5 ml of pyridine, 0.4 ml of hexamethyldisilazane and 0.2 ml of trimethylchlorosilane were added, followed by trimethylsilylation at 80° C. for 30 minutes and subjecting the resulting supernatant liquid to gas chromatographic analysis.

[2] = Dielectric breakdown voltage (JIS C2101); assay type: physicochemical
Source text: as §1

[3] = Specific permittivity (JIS C2101); assay type: physicochemical
Source text: as §1

[4] = Kinetic viscosity (Canon Fenske viscometer, JIS K2283); assay type: physicochemical
Source text: as §1

[5] = Flash point (Cleaveland open-cup method, JIS K2265); assay type: physicochemical
Source text: as §1

[6] = tested on: human being; details: in vivo; cited from earlier work
[7] = tested on: rabbit; details: in vivo; cited from earlier work

Row | Structure (SMILES) | Oxidation stability test, 120° C. after 75 hours [1] [mgKOH/g] | Oxidation stability test, Initial value [1] [mgKOH/g] | Di-electric breakdown voltage [2] [KV/2.5 mm] | Specific permittivity (80° C.) [3] | Kinetic viscosity (40° C.) [4] [mm^2/s] | Flash point [5] [°C] | Dermal irritation average point [6] | Eye irritation [7]
1 | CC(CC(=O)OCC(COC(=O)CC(C)CC(C)(C)C)(COC(=O)CC(C)CC(C)(C)C)COC(=O)CC(C)CC(C)(C)C)CC(C)(C)C (centres unmarked) [pentaerythritol ester of 3,5,5-trimethylhexanoic acid, reference compound] | 0.8 | 0.02 | 55 | >3.0 | 110 | >250 |  | 
2 | CCCCCCCCCCCC(=O)OCC(CC)CCCC (centres unmarked) [2-ethyl hexyl laurate, 2-ethylhexyl laurate, reference compound] | 0.3 | 0.002 | 78 | 2.7 | 5 | 175 |  | 
3 | CCCCC(CC)C(=O)OCC(COC(=O)C(CC)CCCC)OC(=O)C(CC)CCCC (centres unmarked) [2-ethylhexanoic acid triglyceride] |  |  |  |  |  |  | test: average point = 0.05 | rabbit, 100%, OECD 405 method: no

Further lines, with some results ahead:

Row | Oxidation stability test, 120° C. after 75 hours [1] [mgKOH/g] | Oxidation stability test, Initial value [1] [mgKOH/g] | Di-electric breakdown voltage [2] [KV/2.5 mm] | Specific permittivity (80° C.) [3] | Kinetic viscosity (40° C.) [4] [mm^2/s] | Flash point [5] [°C] | Structure (SMILES) | Dermal irritation average point [6] | Eye irritation [7]
4 | 0.2 | 0.008 | 73 | 3.5 | 16 | 220 | CCCCC(CC)C(=O)OCC(COC(=O)C(CC)CCCC)OC(=O)C(CC)CCCC (centres unmarked) [base agent E, 2-ethylhexanoic acid triglyceride] |  | 
5 | 0.4 | 0.002 | 71 | 3.8 | 12.5 | 235 | CCCCCCCC(=O)OCC(COC(=O)CCCCCCC)OC(=O)CCCCCCC [base agent B, caprylic acid triglyceride] |  | 
